Earlier results in patent US20250268950A1, “PRENATAL SUPPLEMENT” (Arizona Board of Regents on Behalf of Arizona State …, priority 2021, published 2025).
Read-outs that look alike come from different tables or passages of the source. Blank lines part the entries; values can stand above or below the compound they belong to.

Legend:
[1] = test system: non-pregnant women with polycystic ovary syndrome; diabetes
[2] = test system: pregnant women
[3] = test system: infants
[4] = for plasma level as % of level at 2500 mg: non-pregnant women
[5] = test system: pregnant women and their infants; settings: maternal blood levels in the highest quartile; 397 ASD, 1034 controls
[6] = test system: pregnant women and their infants; settings: prenatal with vitamin E and dietary intake in upper half (12.6-33.8 mg/day)
[7] = diabetes, meta-analysis of 22 randomized controlled trials

Compound: [Cr] [Chromium]
pregnancy rate ([1]; 200 i.g for eight weeks, non-pregnant women with polycystic ovary syndrome (vs. 3%)): 17%
atypical depression ([1]; 400-600 i.g/day): helpful for atypical depression
adverse events [1, 7]: no difference in the adverse events between chromium and placebo
glycemic control and lipids [1, 7]: improved glycemic control, reduced triglycerides, and increased HDL-C
fasting plasma glucose and insulin levels ([2]; 4 i.g/kg, 24 women with gestational diabetes, U.S.): significantly improved their fasting plasma glucose and insulin levels

Compound: O[C@H]1[C@H](O)[C@@H](O)[C@H](O)[C@@H](O)[C@H]1O [Inositol, Myo-inositol]
gestational diabetes ([2]; 2000 mg/day, 223 overweight, non-obese pregnant women): significant decrease in gestational diabetes compared to placebo
gestational diabetes ([2]; 4000 mg/day, women at risk of gestational diabetes (vs. 25%)): 11%
gestational diabetes ([2]; 4 grams per day, at risk women): greatly reduced gestational diabetes (GD)
macrosomia ([3]; 4000 mg/day, women at risk of gestational diabetes (vs 5.3%)): 2.1%
preterm birth ([3]; 4000 mg/day, women at risk of gestational diabetes (vs. 7.6%)): 3.4%
large for gestational age ([3]; 4000 mg/day, women at risk of gestational diabetes (vs. 8.9%)): 4.8%
side effects (high doses up to 18 grams per day): Only some mild diarrhea
side effects (less than 6 grams per day): zero side effects

magnesium blood levels ([4]; 345 mg/day): enough to keep magnesium levels stable
Compound: [Mg] [Magnesium]
rate of pregnancy-induced hypertension ([2]; Angola and China studies combined, 201 participants (vs. 21% placebo)): 4%
rate of edema ([2]; Angola study (vs. 58%)): 24%
perinatal and maternal composite outcome ([3]; 300 mg/day of elemental magnesium, Brazil): did not find any effect on perinatal composite outcome
preterm birth, RR ([3]; metanalysis of six RCT's, 3068 pregnant women): 0.58
tolerability (supplementation studies, 184-500 mg/day): well-tolerated

risk of ASD, OR [5]: 1.84
Compound: [Mn+2] [Manganese]
Tolerable Upper Limit for Pregnant Women (Table 18): 11 mg

Compound: Cc1ncc(CO)c(CO)c1O [Vitamin B6, Pyridoxine]
dental decay during pregnancy ([2]; 20 mg/day): significantly reduced the rate of dental decay during pregnancy
symptoms of nausea ([2]; 25 mg every 8 hours for 3 days): decrease symptoms of nausea
effect on birth weight ([3]; 2 mg): sufficient to improve birth weight
Tolerable Upper Limit for Pregnant Women (Table 12): 100 mg

Compound: O=C1O[C@H]([C@@H](O)CO)C(O)=C1O [Vitamin C]
risk of term PROM, RR ([2]; Cochrane meta-analysis, vitamin C alone, 170 participants): 0.55
risk of preterm PROM, RR ([2]; Cochrane meta-analysis, vitamin C alone, 1282 participants, five studies): 0.66
rate of urinary tract infections during pregnancy ([2]; Mexico, 100 mg/day (vs. 29%)): 13%
hospitalization during pregnancy ([2]; Uganda, 400 mg (vs. 28% for placebo (so in the source))): 42%
infant pulmonary function and wheezing ([3]; 500 mg/day): improved infant pulmonary function and significantly decreased wheezing through age 1 year
maintenance of vitamin C concentrations ([4]; 100 mg supplementation): enough to maintain a constant leukocyte concentration (storage) of vitamin C, but not enough to maintain plasma concentrations
plasma level as % of level at 2500 mg ([4]; steady-state 100 mg/day): approximately 79%
plasma level as % of level at 2500 mg ([4]; steady-state 200 mg/day): ~88%
plasma level as % of level at 2500 mg ([4]; steady-state 400 mg/day): ~95%
plasma level as % of level at 2500 mg ([4]; steady-state 1000 mg/day): ~97%
Tolerable Upper Limit for Pregnant Women (Table 12): 2000 mg

Compound: C=C1CCC(O)CC1=CC=C1CCCC2(C)C1CCC2C(C)CCCC(C)C (stereo not drawn) [Vitamin D]
reduction of risk of preeclampsia ([2]; 400-600 IU/day during pregnancy, after confounder adjustment): 29%
rate of maternal secondary hyperparathyroidism ([2]; 800 IU/day (from 27%)): 10%
asthma/recurrent wheeze at 0-3 yrs, adjusted OR ([3]; combined analysis of two studies, 2400 IU/day and 4000 IU/day): 0.74
blood levels of vitamin D ([4]; 2000-4000 IU/day): higher blood levels than just 400 IU/day
Tolerable Upper Limit for Pregnant Women (Table 12): 4000 IU

risk of congenital heart defects, times higher [6]: 5-9
increase of vitamin E levels by third trimester ([4]; 30 IU, US): 50%
Compound: Vitamin E
risk of placental abruption, RR ([2]; Cochrane, alpha-tocopherol 200-800 IU with other supplements, 7 trials, 14,922 participants): 0.64
rate of preterm births ([3]; about 450 mg/day (about 675 IU/day), non-randomized (vs. 9.3%)): 6.6%
rate of preterm births in women with preeclampsia ([3]; approximately 200-600 mg/day (vs. 10.4% unsupplemented)): 8.6%
Tolerable Upper Limit for Pregnant Women (Table 12): 1000 mg

Compound: chromium picolinate
comparison of chromium forms [1, 7]: the form with the greatest effects on glucose and triglyceride levels
